pEC50: −log10 of the molar value. Where no end group is shown, it is not given here.
What was measured:
[1] = molecular target: T1, HLA-A*0201 (Homo sapiens, UniProt P04439, /I218V/L300P/L318F/N151K/N90K/P208A/P217A/Q86G/Q94H/R138H/R169H/T345S); test: cell-based; type: binding
T1 construct: endogenous in cells; host or cells: T2 cells (human lymphoid, TAP-deficient)

[2] = tested on: peptide-specific CTLs (IFN-γ-positive cells among CD8-positive cells); parameters: species or system HLA-A2 transgenic mouse; settings: mouse, in vivo; for ICS (% in CD8+ cells): iv
[3] = tested on: peptide-specific CTLs (IFN-γ-positive cells among CD8-positive cells); parameters: species or system HLA-A2 transgenic mouse; settings: mouse, in vivo
[4] = tested on: target cells pulsed with the peptide; parameters: species or system HLA-A2 transgenic mouse; settings: mouse, in vivo
[5] = molecular target: T2, HLA-A*0201 (Homo sapiens, UniProt P04439, D140Y/D185E/D98H/E176V/E277Q/G131W/G231S/I119V/I121R/I166T/I218V/L300P/L318F/N151K/N90K/P208A/P217A/Q86G/Q94H/R138H/R169H/T345S); test: cell-based; type: binding
T2 construct: endogenous in cells; host or cells: T2 cells (human lymphoid, TAP-deficient)

Row | Compound | Affinity [1] | ICS (% in CD8+ cells) [2] | induction of IFN-γ-positive cells among CD8-positive cells [2] | CTL induction activity [3] | CTL response activity [4] | peptide-specific lysis rates (%) of the target cells by CTLs [4] [%] | pEC50 [5] | ratio (%) of IFN-γ-positive cells among CD8-positive cells [3] [%]
1 | CC[C@H](C)[C@H](NC(=O)[C@H](CCC(=O)O)NC(=O)[C@H](CC(C)C)NC(=O)[C@H](CC(C)C)NC(=O)[C@H](CC(=O)O)NC(=O)[C@H](CCC(=O)O)NC(=O)[C@H](CC(N)=O)NC(=O)[C@H](CC(C)C)NC(=O)[C@@H](N)[C@@H](C)O)C(=O)O [pp1a-445] | High (key: High: less than 100 μM; Medium: 100 to 200 μM; Low: more than 200 μM) | 0.08% | – | – | – | – | – | –
2 | CC[C@H](C)[C@H](NC(=O)[C@H](CC(=O)O)NC(=O)[C@H](Cc1ccccc1)NC(=O)[C@@H](NC(=O)CNC(=O)[C@@H](NC(=O)[C@@H](NC(=O)[C@H](CC(C)C)NC(=O)[C@@H](N)Cc1ccccc1)[C@@H](C)CC)[C@@H](C)O)C(C)C)C(=O)O [pp1a-651] | High (key: High: less than 100 μM; Medium: 100 to 200 μM; Low: more than 200 μM) | 0.02% | – | – | – | – | – | –
3 | CC[C@H](C)[C@H](NC(=O)[C@H](CO)NC(=O)[C@H](CC(C)C)NC(=O)[C@H](CC(C)C)NC(=O)[C@H](CC(C)C)NC(=O)[C@H](CC(C)C)NC(=O)[C@H](Cc1c[nH]c2ccccc12)NC(=O)[C@H](CCSC)NC(=O)[C@H](C)N)C(=O)O [pp1a-2207] | – | *0.48% | significantly induced IFN-γ-positive cells among CD8-positive cells | higher than that of the CTL epitope peptide of the Spike protein | – | – | – | –
4 | CC(C)C[C@H](NC(=O)[C@H](C)NC(=O)[C@H](C)NC(=O)[C@H](CC(C)C)NC(=O)[C@@H](NC(=O)[C@H](CS)NC(=O)[C@H](CC(C)C)NC(=O)[C@H](CC(C)C)NC(=O)[C@@H](N)[C@@H](C)O)C(C)C)C(=O)O [pp1a-2754, TLLCVLAAL] | High (key: High: less than 100 μM; Medium: 100 to 200 μM; Low: more than 200 μM) | 0.04% | – | – | – | – | – | –
5 | CC(C)C[C@H](NC(=O)[C@H](Cc1c[nH]c2ccccc12)NC(=O)[C@H](C)NC(=O)[C@H](CC(C)C)NC(=O)[C@@H](N)C(C)C)C(=O)N[C@@H](Cc1ccc(O)cc1)C(=O)N[C@@H](C)C(=O)N[C@@H](C)C(=O)N[C@H](C(=O)O)C(C)C [pp1a-3444] | High (key: High: less than 100 μM; Medium: 100 to 200 μM; Low: more than 200 μM) | *0.12% | significantly induced IFN-γ-positive cells among CD8-positive cells | – | – | – | – | –
6 | CC(C)C[C@H](NC(=O)[C@@H](NC(=O)[C@@H](NC(=O)[C@@H](NC(=O)[C@H](Cc1ccccc1)NC(=O)[C@H](CCCNC(=N)N)NC(=O)[C@H](CC(N)=O)NC(=O)[C@H](CC(C)C)NC(=O)[C@@H](N)Cc1ccccc1)[C@@H](C)O)[C@@H](C)O)[C@@H](C)O)C(=O)O [pp1a-3459] | High (key: High: less than 100 μM; Medium: 100 to 200 μM; Low: more than 200 μM) | 0.03% | – | – | – | – | – | –
7 | CC[C@H](C)[C@H](NC(=O)[C@H](CC(C)C)NC(=O)[C@H](CC(C)C)NC(=O)[C@H](CO)NC(=O)[C@@H](NC(=O)[C@H](CC(C)C)NC(=O)[C@@H](N)Cc1ccccc1)[C@@H](C)O)C(=O)N[C@@H](CC(C)C)C(=O)N[C@H](C(=O)O)C(C)C [pp1a-3564] | Medium (key: High: less than 100 μM; Medium: 100 to 200 μM; Low: more than 200 μM) | 0.06% | – | – | – | – | – | –
8 | CC(C)C[C@H](NC(=O)[C@H](CO)NC(=O)[C@@H]1CCCN1C(=O)[C@H](CC(C)C)NC(=O)[C@H](CC(C)C)NC(=O)[C@@H](N)Cc1ccccc1)C(=O)N[C@@H](C)C(=O)N[C@H](C(=O)N[C@H](C(=O)O)C(C)C)[C@@H](C)O [pp1a-3616] | High (key: High: less than 100 μM; Medium: 100 to 200 μM; Low: more than 200 μM) | 0.07% | – | – | – | – | – | –
9 | CC[C@H](C)[C@H](NC(=O)[C@@H](NC(=O)[C@H](CC(N)=O)NC(=O)[C@H](CCSC)NC(=O)[C@H](CC(C)C)NC(=O)[C@@H](N)[C@@H](C)O)C(C)C)C(=O)N[C@H](C(=O)N[C@@H](CC(C)C)C(=O)N[C@H](C(=O)O)C(C)C)[C@@H](C)O [pp1a-3687] | High (key: High: less than 100 μM; Medium: 100 to 200 μM; Low: more than 200 μM) | *0.20% | significantly induced IFN-γ-positive cells among CD8-positive cells | higher than that of the CTL epitope peptide of the Spike protein | – | – | – | –
10 | CC[C@H](C)[C@H](NC(=O)[C@@H](NC(=O)[C@H](CC(C)C)NC(=O)[C@H](C)NC(=O)[C@H](Cc1c[nH]c2ccccc12)NC(=O)[C@H](CCSC)NC(=O)[C@@H](N)CO)C(C)C)C(=O)N[C@@H](CO)C(=O)N[C@H](C(=O)O)C(C)C [pp1a-3709] | High (key: High: less than 100 μM; Medium: 100 to 200 μM; Low: more than 200 μM) | *0.50% | significantly induced IFN-γ-positive cells among CD8-positive cells | higher than that of the CTL epitope peptide of the Spike protein | especially high CTL response activity | 96.3 | – | –
11 | ALSGVFCGV [pp1a-2990] | High (key: High: less than 100 μM; Medium: 100 to 200 μM; Low: more than 200 μM) | *0.16% | significantly induced IFN-γ-positive cells among CD8-positive cells | higher than that of the CTL epitope peptide of the Spike protein | high CTL response activities | 73.4 | 5.21 | –
12 | CLDAGINYV [pp1a-2187] | High (key: High: less than 100 μM; Medium: 100 to 200 μM; Low: more than 200 μM) | *0.19% | significantly induced IFN-γ-positive cells among CD8-positive cells | higher than that of the CTL epitope peptide of the Spike protein | high CTL response activities | 79.2 | 5.52 | –
13 | FIAGLIAIV [spike-1203, reference compound] | – | – | – | – | – | – | – | 0.29
14 | ILLLDQVLV [pp1a-2546] | High (key: High: less than 100 μM; Medium: 100 to 200 μM; Low: more than 200 μM) | *0.17% | significantly induced IFN-γ-positive cells among CD8-positive cells | higher than that of the CTL epitope peptide of the Spike protein | – | – | 5.12 | –
15 | KLNIKLLGI [pp1a-3816] | High (key: High: less than 100 μM; Medium: 100 to 200 μM; Low: more than 200 μM) | 0.07% | – | – | – | – | 4.17 | –
16 | KLSAGVEFL [pp1a-634] | High (key: High: less than 100 μM; Medium: 100 to 200 μM; Low: more than 200 μM) | 0.08% | – | – | – | – | 4.22 | –
17 | LLCVLAALV [pp1a-2755] | – | *0.18% | significantly induced IFN-γ-positive cells among CD8-positive cells | higher than that of the CTL epitope peptide of the Spike protein | high CTL response activities | 70.5 | 3.73 | –
18 | LLFITGNTL [pp1a-3745] | Medium (key: High: less than 100 μM; Medium: 100 to 200 μM; Low: more than 200 μM) | 0.03% | – | – | – | – | 3.81 | –
19 | MLLTFLTSL [pp1a-3560] | High (key: High: less than 100 μM; Medium: 100 to 200 μM; Low: more than 200 μM) | 0.04% | – | – | – | – | 4.33 | –
20 | MLSRALKKV [pp1a-1288] | High (key: High: less than 100 μM; Medium: 100 to 200 μM; Low: more than 200 μM) | 0.05% | – | – | – | – | 4.19 | –
21 | QLSLPVLQV [pp1a-15] | High (key: High: less than 100 μM; Medium: 100 to 200 μM; Low: more than 200 μM) | 0.05% | – | – | – | – | 4.12 | –
22 | SLQVCVQTV [pp1a-1139] | High (key: High: less than 100 μM; Medium: 100 to 200 μM; Low: more than 200 μM) | 0.07% | – | – | – | – | 5.31 | –
23 | TLGVLVPHV [pp1a-103] | High (key: High: less than 100 μM; Medium: 100 to 200 μM; Low: more than 200 μM) | 0.07% | – | – | – | – | 5.51 | –
24 | VLGSLAATV [pp1a-4219] | High (key: High: less than 100 μM; Medium: 100 to 200 μM; Low: more than 200 μM) | 0.01% | – | – | – | – | 4.27 | –
25 | VLLSVLQQL [pp1a-3848] | Medium (key: High: less than 100 μM; Medium: 100 to 200 μM; Low: more than 200 μM) | 0.07% | – | – | – | – | 3.99 | –
26 | YLSSVLLAL [pp1a-1652, YLSSVLLAL] | High (key: High: less than 100 μM; Medium: 100 to 200 μM; Low: more than 200 μM) | 0.05% | – | – | – | – | 5.17 | –
